Measurements taken from ChEMBL document CHEMBL1201862, “PubChem BioAssay data set” (2004).
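1) Cells in 96-well plates. 2) Compound, 48 h, 5 concentrations. 3) Linear interpolation between surrounding doses. 4) Unreached endpoint = highest concentration. GI50 = concentration required for 50% inhibition of growth.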 Calls of active or inactive are those of the source. No stated cut-off is given here; in the data, active = GI50 up to about 1.1 µM and inactive = higher.

Legend:
Test in all cases: growth of human tumour cells (NCI), 48 h
LOX IMVI = system: LOX IMVI
A498 = system: A498
HT-29 = system: HT-29
SK-MEL-2 = system: SK-MEL-2
ACHN = system: ACHN
SR = system: SR
SF-268 = system: SF-268
HL-60 = system: HL-60
SK-MEL-28 = system: SK-MEL-28
SNB-75 = system: SNB-75
HCC 2998 = system: HCC 2998
TK-10 = system: TK-10
OVCAR-8 = system: OVCAR-8
CAKI-1 = system: CAKI-1
UACC-62 = system: UACC-62
SW-620 = system: SW-620

Measured: GI50

CCOC(=O)NN(C(=O)OCC)C(C(=O)c1ccc(Cl)cc1)=C1NCCN1
inactive: LOX IMVI > 100 µM | A498 > 100 µM | HT-29 > 100 µM | SK-MEL-2 > 100 µM | ACHN > 100 µM | SR > 100 µM | SF-268 > 100 µM | HL-60 > 100 µM | SK-MEL-28 > 100 µM | SNB-75 52.4 µM | HCC 2998 > 100 µM | TK-10 > 100 µM | OVCAR-8 > 100 µM | CAKI-1 > 100 µM | UACC-62 > 100 µM | SW-620 > 100 µM

O=C(O)c1ccc(S(=O)(=O)c2ccccc2)c([N+](=O)[O-])c1
inactive: LOX IMVI > 100 µM | A498 > 100 µM | HT-29 > 100 µM | SK-MEL-2 > 100 µM | ACHN > 100 µM | SR > 100 µM | SF-268 > 100 µM | HL-60 > 100 µM | SK-MEL-28 > 100 µM | SNB-75 > 100 µM | HCC 2998 > 100 µM | TK-10 > 100 µM | CAKI-1 > 100 µM | UACC-62 > 100 µM | SW-620 > 100 µM

CCOC(=O)C1=C(Nc2ccc(Br)cc2)OC/C1=N\NC(=O)c1ccccc1O
inactive: LOX IMVI 5.37 µM | A498 > 47.3 µM | HT-29 40.4 µM | SK-MEL-2 15.1 µM | ACHN 5.13 µM | SR 9.06 µM | SF-268 12 µM | HL-60 20.4 µM | SK-MEL-28 > 81.3 µM | HCC 2998 20.3 µM | TK-10 > 34.8 µM | OVCAR-8 13.1 µM | CAKI-1 6.49 µM | UACC-62 2.67 µM | SW-620 23 µM

C[Si](C)(C)C(CCCCSc1ccccc1)(Sc1ccccc1)Sc1ccccc1
inactive: LOX IMVI > 100 µM | A498 > 100 µM | SK-MEL-2 > 100 µM | ACHN > 100 µM | SR > 100 µM | SF-268 > 100 µM | HL-60 > 100 µM | SK-MEL-28 > 100 µM | SNB-75 > 100 µM | HCC 2998 > 100 µM | TK-10 > 100 µM | OVCAR-8 > 100 µM | CAKI-1 > 100 µM | UACC-62 36.1 µM | SW-620 > 100 µM

Oc1cc(C2OCCCO2)cc(O)c1O
inactive: A498 > 100 µM | HT-29 > 100 µM | SK-MEL-2 > 100 µM | ACHN > 100 µM | SR > 100 µM | SF-268 > 100 µM | HL-60 > 100 µM | SK-MEL-28 > 100 µM | SNB-75 > 100 µM | HCC 2998 > 100 µM | TK-10 > 100 µM | OVCAR-8 > 100 µM | CAKI-1 > 100 µM | UACC-62 > 100 µM | SW-620 > 100 µM
